From US20180153995A1, “USE OF ANTIMICROBIAL POLYMERS FOR RE-SENSITIZATION OF MICROORGANISMS UPON EMERGENCE OF RESISTANCE TO ANTI-MICROBIAL AGENTS” (Technion Research & Development Foundation Limited, priority 2008, published 2018)
Like-named read-outs stand apart in the source and are kept apart here.

Key:
E. coli 16329 = format: cell-based, Escherichia coli
Experimental: (§1) MICs were determined by microdilution susceptibility testing in 96-well plates (by Nunc) using inocula of 10^5 bacteria per ml. Cell populations were evaluated by optical density measurements at 620 nm and were calibrated against a set of standards. Hundred (100) μl of a bacterial suspension were added to 100 μl of culture medium (control) or to 100 μl of culture medium containing various polymer concentrations in 2-fold serial dilutions. Inhibition of proliferation was determined by optical density measurements at 620 nm after an incubation period of 24 hours at 37° C.
(§2) 100 μl of a bacterial suspension were added to 100 μl of culture medium (control) or to 100 μl of culture medium containing various antibiotic and C14(9-ene)KKNC12KNH2 (SEQ ID NO: 5) concentrations in 2-fold serial dilutions. Inhibition of proliferation was determined by optical density measurements at 620 nm after an incubation period of 24 hours at 37° C.

S. aureus 15877 = assay: Antibiotic MIC by microdilution with or without sub-MIC polymer; format: cell-based, Staphylococcus aureus
S. aureus 17314 = assay: as above; format: cell-based, Staphylococcus aureus
P. mirabilis 1285 [1] = format: cell-based, Proteus mirabilis; details: no polymer (None), Table 12
Experimental: as §1, §2

P. mirabilis 1285 [2] = format: cell-based, Proteus mirabilis
E. coli AG100 = assay: Antibiotic MIC with or without sub-MIC polymer (Tables 20, 21); format: cell-based, Escherichia coli
MRSA 15852 = format: cell-based, Staphylococcus aureus; details: S. aureus 15852
How it was run: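 Checkerboard combination testing against MRSA 15852; FIC index = A/MICA + B/MICB, with A and B the MICs of each agent in combination and MICA, MICB the MICs alone. Index <0.5 read as clear re-sensitizing, 0.5–4 as marginal or null, >4 as antagonism.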

E. coli AG100/ks = assay: Antibiotic MIC with or without sub-MIC polymer (Tables 20, 21); format: cell-based, Escherichia coli
P. aeruginosa 8732 = assay: Antibiotic MIC by microdilution with or without sub-MIC polymer; format: cell-based, Pseudomonas aeruginosa
Experimental: as §1
Inhibition of proliferation was determined by optical density measurements at 620 nm after an incubation period of 24 hours at 37° C.

[3] = +¼ MIC (1.6 μM) C12(5-ene)KKNC12KNH2
[4] = +½ MIC (3.12 μM) C12(5-ene)KKNC12KNH2
[5] = +⅓ MIC (2.1 μM) C12(5-ene)KKNC12KNH2

With `CCN1CCN(C(=O)N[C@@H](C(=O)N[C@@H]2C(=O)N3[C@@H]2SC(C)(C)[C@@H]3C(=O)O)c2ccccc2)C(=O)C1=O` [Piperacillin, piperacillin] the “Antibiotic MIC” value (E. coli 16329) was 128 to 256 µg/mL, the “Antibiotic MIC” value (E. coli 16329; E. coli 16329, no polymer (None), Table 10) was 256 µg/mL and the “Antibiotic MIC” value (E. coli 16329; E. coli U-16329, +¼ MIC C12K(NC8K)5NH2) was 256 µg/mL. The “Antibiotic MIC” value (E. coli 16329; E. coli U-16329, +½ MIC C12K(NC8K)5NH2) was 128 µg/mL, the “Antibiotic MIC” value (E. coli 16329; E. coli U-16329, +⅓ MIC C12K(NC8K)5NH2) was 128 to 256 µg/mL and the “Antibiotic MIC, None” value (E. coli 16329; E. coli U-16329, antibiotic alone (Table 15)) was 256 µg/mL. For the same compound, the “Antibiotic MIC” value (E. coli 16329; E. coli U-16329, no polymer (None), Table 14) was 256 µg/mL, the “Antibiotic MIC in presence of C12K(NC8K)7NH2 (SEQ ID NO: 4), +¼ MIC” value (“Antibiotic MIC … (SEQ ID NO: 4), +¼ MIC” for short) (E. coli 16329; E. coli U-16329, polymer at ¼ of its MIC) was 128 to 256 µg/mL and the “Antibiotic MIC in presence of C12K(NC8K)7NH2 (SEQ ID NO: 4), +½ MIC” value (“Antibiotic MIC … (SEQ ID NO: 4), +½ MIC” below) (E. coli 16329; E. coli U-16329, polymer at ½ of its MIC) was 64 to 128 µg/mL. The “Antibiotic MIC in presence of C12K(NC8K)7NH2 (SEQ ID NO: 4), +⅓ MIC” value (shortened to “Antibiotic MIC … (SEQ ID NO: 4), +⅓ MIC”) (E. coli 16329; E. coli U-16329, polymer at ⅓ of its MIC) was 128 to 256 µg/mL, the “Antibiotic MIC” value (S. aureus 15877; [3]) was 16 to 32 µg/mL and the “Antibiotic MIC” value (S. aureus 15877; [4]) was 8 to 16 µg/mL. For the same compound, the “Antibiotic MIC” value (S. aureus 15877; [5]) was 16 to 32 µg/mL, the “Antibiotic MIC” value (S. aureus 15877; no polymer (None), Table 8) was 16 to 32 µg/mL and the “Antibiotic MIC” value (S. aureus 17314) was 128 µg/mL. The “Antibiotic MIC” value (S. aureus 17314; S. aureus 17314, +¼ MIC (1.6 μM) C12K(KNC12K)2NH2) was 128 µg/mL, the “Antibiotic MIC” value (S. aureus 17314; S. aureus 17314, +¼ MIC (1.6 μM) C14(9-ene)KKNC12KNH2) was 32 µg/mL and the “Antibiotic MIC” value (S. aureus 17314; S. aureus 17314, +¼ MIC (1.6 μM) C16(9-ene)KKNC12KNH2) was 4 µg/mL. The “Antibiotic MIC” value (S. aureus 17314; S. aureus 17314, +½ MIC (3.12 μM) C12K(KNC12K)2NH2) was 64 µg/mL, the “Antibiotic MIC” value (S. aureus 17314; S. aureus 17314, +½ MIC (3.12 μM) C12KKNC12KNH2) was 64 µg/mL and the “Antibiotic MIC” value (S. aureus 17314; S. aureus 17314, +½ MIC (3.12 μM) C14(9-ene)KKNC12KNH2) was 32 µg/mL. For the same compound, the “Antibiotic MIC” value (S. aureus 17314; S. aureus 17314, +½ MIC (3.12 μM) C16(9-ene)KKNC12KNH2) was 1 µg/mL, the “Antibiotic MIC” value (S. aureus 17314; S. aureus 17314, +⅓ MIC (2.1 μM) C12K(KNC12K)2NH2) was 128 µg/mL and the “Antibiotic MIC” value (S. aureus 17314; S. aureus 17314, +⅓ MIC (2.1 μM) C14(9-ene)KKNC12KNH2) was 32 µg/mL. For the same compound, the “Antibiotic MIC” value (S. aureus 17314; S. aureus 17314, +⅓ MIC (2.1 μM) C16(9-ene)KKNC12KNH2) was 2 µg/mL, the “Antibiotic MIC” value (S. aureus 17314; S. aureus 17314, no polymer (None), Table 9) was 32 µg/mL and the “Antibiotic MIC” value (S. aureus 17314; S. aureus 17314, no polymer (None), Table 10) was 8 µg/mL. The “Antibiotic MIC” value (S. aureus 17314; S. aureus 17314, no polymer (None), Table 11) was 128 µg/mL, the “Antibiotic MIC” value (S. aureus 17314; S. aureus 17314, no polymer (None), Table 12) was 128 µg/mL and the “Antibiotic MIC” value (P. mirabilis 1285 [1]) was 512 µg/mL. For the same compound, the “Antibiotic MIC” value (P. mirabilis 1285 [2]; +¼ MIC (1.6 μM) C12K(KNC12K)2NH2) was 512 µg/mL, the “Antibiotic MIC” value (P. mirabilis 1285 [2]; +½ MIC (3.12 μM) C12K(KNC12K)2NH2) was 512 µg/mL and the “Antibiotic MIC” value (P. mirabilis 1285 [2]; +⅓ MIC (2.1 μM) C12K(KNC12K)2NH2) was 512 µg/mL. For the same compound, the “Antibiotic MIC, None” value (E. coli AG100; antibiotic alone (Table 20)) was 2 µg/mL, the “Antibiotic MIC, None” value (E. coli AG100; antibiotic alone (Table 21)) was 2 µg/mL and the “Antibiotic MIC in presence of C12K(NC8K)5NH2 (SEQ ID NO: 3), +¼ MIC” value (E. coli AG100; polymer at ¼ of its MIC) was 1 to 2 µg/mL. For the same compound, the “Antibiotic MIC … (SEQ ID NO: 4), +¼ MIC” value (E. coli AG100; polymer at ¼ of its MIC) was 2 µg/mL, the “Antibiotic MIC in presence of C12K(NC8K)5NH2 (SEQ ID NO: 3), +½ MIC” value (E. coli AG100; polymer at ½ of its MIC) was 0.5 µg/mL and the “Antibiotic MIC … (SEQ ID NO: 4), +½ MIC” value (E. coli AG100; polymer at ½ of its MIC) was 0.5 µg/mL. The “Antibiotic MIC in presence of C12K(NC8K)5NH2 (SEQ ID NO: 3), +⅓ MIC” value (E. coli AG100; polymer at ⅓ of its MIC) was 1 µg/mL, the “Antibiotic MIC … (SEQ ID NO: 4), +⅓ MIC” value (E. coli AG100; polymer at ⅓ of its MIC) was 1 µg/mL and the “Antibiotic MIC” value (MRSA 15852; [3]) was 128 µg/mL. The “Antibiotic MIC” value (MRSA 15852; +¼ MIC (1.6 μM) C12KKNC12KNH2) was 256 µg/mL, the “Antibiotic MIC” value (MRSA 15852; [4]) was 128 µg/mL and the “Antibiotic MIC” value (MRSA 15852; +½ MIC (3.12 μM) C12KKNC12KNH2) was 256 µg/mL. For the same compound, the “Antibiotic MIC” value (MRSA 15852; [5]) was 128 µg/mL, the “Antibiotic MIC” value (MRSA 15852; +⅓ MIC (2.1 μM) C12KKNC12KNH2) was 256 µg/mL and the “Antibiotic MIC” value (MRSA 15852; no polymer (None), Table 8) was 128 µg/mL. For the same compound, the “Antibiotic MIC” value (MRSA 15852; no polymer (None), Table 11) was 256 µg/mL, the “Antibiotic MIC, None” value (E. coli AG100/ks; antibiotic alone (Table 20)) was >512 µg/mL and the “Antibiotic MIC, None” value (E. coli AG100/ks; antibiotic alone (Table 21)) was >512 µg/mL. For the same compound, the “Antibiotic MIC in presence of C12K(NC8K)5NH2 (SEQ ID NO: 3), +¼ MIC” value (E. coli AG100/ks; polymer at ¼ of its MIC) was >512 µg/mL, the “Antibiotic MIC … (SEQ ID NO: 4), +¼ MIC” value (E. coli AG100/ks; polymer at ¼ of its MIC) was >512 µg/mL and the “Antibiotic MIC in presence of C12K(NC8K)5NH2 (SEQ ID NO: 3), +½ MIC” value (E. coli AG100/ks; polymer at ½ of its MIC) was >512-512 μg/ml. For the same compound, the “Antibiotic MIC … (SEQ ID NO: 4), +½ MIC” value (E. coli AG100/ks; polymer at ½ of its MIC) was >512-512 μg/ml, the “Antibiotic MIC in presence of C12K(NC8K)5NH2 (SEQ ID NO: 3), +⅓ MIC” value (E. coli AG100/ks; polymer at ⅓ of its MIC) was >512 µg/mL and the “Antibiotic MIC … (SEQ ID NO: 4), +⅓ MIC” value (E. coli AG100/ks; polymer at ⅓ of its MIC) was >512 µg/mL. For the same compound, the “Antibiotic MIC” value (P. aeruginosa 8732) was 256 µg/mL, the “Antibiotic MIC” value (P. aeruginosa 8732; P. aeruginosa 8732, +½ MIC (3.12 μM) C16(9-ene)KKNC12KNH2) was 256 µg/mL and the “Antibiotic MIC” value (P. aeruginosa 8732; P. aeruginosa 8732, +⅓ MIC (2.1 μM) C16(9-ene)KKNC12KNH2) was 256 µg/mL. The “Antibiotic MIC” value (P. aeruginosa 8732; P. aeruginosa 8732, no polymer (None), Table 10) was 256 µg/mL.
